Data published in publication PMC4366150, “Inhibiting EGFR Dimerization Using Triazolyl-Bridged Dimerization Arm Mimics” (PLoS ONE, 2015).
Positions of bridges follow the written chain, without caps; N, C: chain ends. Non-standard residues stand in square brackets, D forms with d. Residues, ends and D or L forms follow the SMILES beside them. Triazole bridges read from a SMILES are 1,4-linked. *: point of attachment. 5FAM = O=C1OC2(c3ccc(O)cc3Oc3cc(O)ccc32)c2ccc(C(=O)*)cc21; Aha = [N-]=[N+]=NCC[C@H](N)C(=O)O; Nle = CCCC[C@H](N)C(=O)O; Pra = C#CC[C@H](N)C(=O)O; βAla = NCCC(=O)O

Tests used:
Type in all cases: cell-based
EGFR p-Tyr1068 = experiment: EGFR phosphorylation (Tyr1068) in MDA-MB-231 cells, western blot; conditions: 30 min pretreatment, 50 ng/mL EGF 5 min
Method: (§1) The EDA peptides were first tested to see if they could downregulate EGFR activation. Receptor activation was monitored as a function of EGFR autophosphorylation on Tyr1068 in intact MDA-MB-231 cells (Fig. 5a and b and S3 Fig.). The receptor was stimulated with EGF for 5 min following a 30 min peptide pretreatment.
Fig 5 EDA2 down-regulates activated EGFR and reduces cell viability. (a) Cells were stimulated with 50 ng/mL EGF for 5 min in the presence or absence of EDA peptides, followed by western blotting. An apparent decrease in phosphorylated EGFR was observed when treated with EDA2. Vertical lines indicate non-adjacent samples from the same western blot. […] Data is plotted as the average of at least three experiments, where error bars represent SEM. * p < 0.05, ** p < 0.01 relative to the EGF-stimulated control. […] (c) A panel of cell lines was dosed daily with EDA2 or gefitinib for 5 days, and viability was quantified using the Cell Titer Blue assay. […]
Proteins were separated by 8% SDS-PAGE then transferred onto PVDF membrane. […] Bands were visualized by chemiluminescence and quantified using Licor Image Studio Lite. […] Significance values were calculated using two-way ANOVA with Bonferonni multiple-comparison test. […] Significance values were calculated using one-way ANOVA with Bonferonni multiple-comparison test. […]

total EGFR = biological target: T1, total EGFR (Homo sapiens, UniProt P00533); experiment: Total EGFR protein levels in MDA-MB-231 cells, western blot; conditions: peptide 30 min, 50 ng/mL EGF 5 min, western blot normalized to tubulin, average of two experiments
T1 construct: EGFR autophosphorylation on Tyr1068 in intact MDA-MB-231 cells; endogenous in cells; host or cells: MDA-MB-231 (ATCC)
Method: as §1
While EDA2 downregulates receptor phosphorylation, we also wanted to investigate whether EGFR dimerization itself was inhibited. As a strategy to measure the number of detectable EGFR dimers in intact cells, a quantitative Proximity Ligation Assay (PLA) was performed (Fig. 6). Cells were stimulated with EGF in the presence or absence of EDA2 or its scramble control (EDA2-Scr). […] Fluorescence microscopy was used to visualize the DAPI and PLA signals.
Proteins were separated by 8% SDS-PAGE then transferred onto PVDF membrane. […] Bands were visualized by chemiluminescence and quantified using Licor Image Studio Lite. […] Significance values were calculated using two-way ANOVA with Bonferonni multiple-comparison test. […] Significance values were calculated using one-way ANOVA with Bonferonni multiple-comparison test.
Supplementary file pone.0118796.s004.tif: S4 Fig The effect of EDA2 and its controls on total EGFR protein levels in the cell. […] Cells were immediately lysed and total EGFR levels were analyzed by western blotting. […]

BxPC-3 cells = experiment: Cell viability, Cell Titer Blue, BxPC-3; conditions: 6.25 μM, dosed daily for 5 days, average of quadruplicates
Method: (§2) Fig 5 EDA2 down-regulates activated EGFR and reduces cell viability. (a) Cells were stimulated with 50 ng/mL EGF for 5 min in the presence or absence of EDA peptides, followed by western blotting. An apparent decrease in phosphorylated EGFR was observed when treated with EDA2. Vertical lines indicate non-adjacent samples from the same western blot. […] Data is plotted as the average of at least three experiments, where error bars represent SEM. * p < 0.05, ** p < 0.01 relative to the EGF-stimulated control. All remaining means are not significant (p > 0.05) relative to the EGF-stimulated control. (c) A panel of cell lines was dosed daily with EDA2 or gefitinib for 5 days, and viability was quantified using the Cell Titer Blue assay. […]
(§3) Since EDA2 appeared to downregulate EGFR phosphorylation, we sought to determine whether this activity could also lead to a decrease in cell viability (Fig. 5c). Three diverse, EGFR-expressing cell lines (MDA-MB-231, PC-3, and BxPC-3) were dosed daily with EDA2 over a 0–50 μM concentration range over a five-day time course, after which cell viability was quantified using the Cell Titer Blue assay. […]
(§4) MDA-MB-231, PC-3, or Bx-PC3 cells were seeded at 7,500 cells/well in a 96 well plate and allowed to adhere in RPMI-1640 containing 1% FBS. […] Fluorescence was quantified using 530 nm excitation and 590 nm emission filters. […]

PC-3 cells = experiment: Cell viability, Cell Titer Blue, PC-3; conditions: 6.25 μM, dosed daily for 5 days, average of quadruplicates
Method: as §2, §3, §4

MDA-MB-231 cells = experiment: Cell viability, Cell Titer Blue, MDA-MB-231; conditions: 6.25 μM, dosed daily for 5 days, average of quadruplicates
Method: as §2, §3, §4

Row | effect on EGFR expression (total EGFR) (in words) (total EGFR) | Structure (SMILES) | effect on EGFR phosphorylation (Tyr1068) (in words) (EGFR p-Tyr1068; 0.05, 0.5 or 5 μM peptide, western blot) | reduction of EGFR phosphorylation (Tyr1068) compared to untreated cells (EGFR p-Tyr1068; 5 μM peptide, normalized to tubulin, average of at least three experiments) | reduction of cell viability (BxPC-3 cells) | reduction of cell viability (PC-3 cells) | reduction of cell viability (MDA-MB-231 cells)
1 |  | CCCC[C@H](NC(=O)[C@H](CCC(N)=O)NC(=O)[C@H](Cc1ccc(O)cc1)NC(=O)[C@@H](NC(=O)[C@@H](NC(=O)[C@@H]1CCCN1C(=O)[C@H](CC(N)=O)NC(=O)[C@H](Cc1ccc(O)cc1)NC(=O)[C@H](C)NC(=O)CCNC(=O)c1ccc2c(c1)C(=O)OC21c2ccc(O)cc2Oc2cc(O)ccc21)[C@@H](C)O)[C@@H](C)O)C(=O)N[C@@H](C)C(N)=O [non-modified control, reference compound] ({5FAM-βAla}-AYNPTTYQ[Nle]A-NH2) | no inhibitory effect |  |  |  | 
2 | no effect | CCCC[C@@H]1NC(=O)[C@H](CCC(N)=O)NC(=O)[C@H](Cc2ccc(O)cc2)NC(=O)[C@H]([C@@H](C)O)NC(=O)[C@H]([C@@H](C)O)NC(=O)[C@@H]2CCCN2C(=O)[C@H](CC(N)=O)NC(=O)[C@H](Cc2ccc(O)cc2)NC(=O)[C@@H](NC(=O)c2ccc3c(c2)C(=O)OC32c3ccc(O)cc3Oc3cc(O)ccc32)Cc2cn(nn2)CC[C@@H](C(N)=O)NC1=O [EDA2] (5FAM-[Pra]YNPTTYQ[Nle][Aha]-NH2; triazole 1-10) |  | greater than 60% | 34% | 72% | 50%
